Experimental data published in ChEMBL document CHEMBL1201862, “PubChem BioAssay data set” (2004).
Activity calls are given as the source filed them.

Columns and labels:
[1] = biological target: Voltage-gated inwardly rectifying potassium channel KCNH2 (Homo sapiens, UniProt Q12809); details: Potency;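 also: confirmatory quantitative high-throughput screen measuring inhibition of hERG channel activity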
Mu-type opioid receptor = Mu-type opioid receptor (Homo sapiens, UniProt P35372); assay type: functional, cell-based;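 also: U2OS cells with beta-arrestin recruitment to OPRM1 by beta-gal complementation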
[2] = biological target: 5-hydroxytryptamine receptor 2A (Mus musculus, UniProt P35363); assay type: functional, cell-based;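 also: CHO-K1 cells with tagged receptor and beta-arrestin; agonist potency measured as compound-induced activation of the receptor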
[3] = biological target: T1, Nuclear receptor subfamily 0 group B member 1 (Homo sapiens, UniProt P51843); experiment: Luminescence-based cell-based high throughput dose response assay for inhibitors of the orphan nuclear receptor subfamily 0, group B, member 1 (DAX1; NR0B1). [Related pubchem assays (depositor defined):AID504766, AID504790]; assay type: functional
T1 sequence (P51843 whole entry): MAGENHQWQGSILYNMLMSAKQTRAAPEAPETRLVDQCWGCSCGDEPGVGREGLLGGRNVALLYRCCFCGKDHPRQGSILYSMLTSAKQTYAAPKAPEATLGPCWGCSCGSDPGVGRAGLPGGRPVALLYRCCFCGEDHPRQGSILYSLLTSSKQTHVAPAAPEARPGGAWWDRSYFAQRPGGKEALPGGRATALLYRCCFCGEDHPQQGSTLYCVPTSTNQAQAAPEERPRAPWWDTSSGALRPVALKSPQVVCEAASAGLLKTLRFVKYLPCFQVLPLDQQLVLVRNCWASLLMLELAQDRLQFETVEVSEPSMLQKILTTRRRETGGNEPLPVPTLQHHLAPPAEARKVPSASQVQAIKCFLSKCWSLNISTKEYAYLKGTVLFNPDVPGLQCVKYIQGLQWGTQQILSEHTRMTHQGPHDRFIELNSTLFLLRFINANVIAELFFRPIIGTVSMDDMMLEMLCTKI

HEK293 [4] = experiment: cells; assay type: functional, cell-based; details: Homo sapiens
Cysteine protease ATG4B = Cysteine protease ATG4B (Homo sapiens, UniProt Q9Y4P1); assay type: functional;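 also: Fluorescence-based dose-response confirmation assay measuring inhibition of ATG4B activity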
[5] = biological target: T2, Calpain-2 catalytic subunit (Sus scrofa, UniProt P43367); experiment: pig calpain II inhibitor potency, dose response, biochemical, fluorogenic peptide substrate (AID 1420); assay type: functional
T2 sequence (P43367 whole entry): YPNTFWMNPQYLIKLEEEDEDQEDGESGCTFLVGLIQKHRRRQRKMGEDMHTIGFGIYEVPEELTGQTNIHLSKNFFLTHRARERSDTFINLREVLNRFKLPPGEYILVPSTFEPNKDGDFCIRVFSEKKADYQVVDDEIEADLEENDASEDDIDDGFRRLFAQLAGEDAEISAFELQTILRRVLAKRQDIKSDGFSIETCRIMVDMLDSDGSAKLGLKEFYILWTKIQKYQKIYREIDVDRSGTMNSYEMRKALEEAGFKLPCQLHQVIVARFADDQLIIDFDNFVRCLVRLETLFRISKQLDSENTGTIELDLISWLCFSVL

Phospholipase A2 = Phospholipase A2 (Homo sapiens, UniProt P04054); assay type: functional;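 also: confirmatory dose-response counterscreen on phospholipase A2, testing hits that came from an ultra-high-throughput screen for ATG4B inhibitors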
HEK293 [6] = experiment: HEK cell cytotoxicity by LDH release, dose response, cytotoxicity control for IDE activator project, fluorescence, HEK cells (AID 588440); assay type: functional, cell-based; details: Homo sapiens;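 also: cytotoxicity by LDH release measuring loss of membrane integrity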
HEK293 [7] = experiment: optical interference in Abeta FP readout, dose response, artefact control for IDE activator project, biochemical, fluorescence polarization (AID 588442); assay type: functional, cell-based; details: Homo sapiens
Insulin-degrading enzyme [8] = biological target: T3, Insulin-degrading enzyme (Homo sapiens, UniProt P14735); experiment: activators of endogenous IDE in HEK cells, dose response, cell-based, fluorescence polarization (AID 588439); assay type: functional
T3 sequence (P14735 whole entry): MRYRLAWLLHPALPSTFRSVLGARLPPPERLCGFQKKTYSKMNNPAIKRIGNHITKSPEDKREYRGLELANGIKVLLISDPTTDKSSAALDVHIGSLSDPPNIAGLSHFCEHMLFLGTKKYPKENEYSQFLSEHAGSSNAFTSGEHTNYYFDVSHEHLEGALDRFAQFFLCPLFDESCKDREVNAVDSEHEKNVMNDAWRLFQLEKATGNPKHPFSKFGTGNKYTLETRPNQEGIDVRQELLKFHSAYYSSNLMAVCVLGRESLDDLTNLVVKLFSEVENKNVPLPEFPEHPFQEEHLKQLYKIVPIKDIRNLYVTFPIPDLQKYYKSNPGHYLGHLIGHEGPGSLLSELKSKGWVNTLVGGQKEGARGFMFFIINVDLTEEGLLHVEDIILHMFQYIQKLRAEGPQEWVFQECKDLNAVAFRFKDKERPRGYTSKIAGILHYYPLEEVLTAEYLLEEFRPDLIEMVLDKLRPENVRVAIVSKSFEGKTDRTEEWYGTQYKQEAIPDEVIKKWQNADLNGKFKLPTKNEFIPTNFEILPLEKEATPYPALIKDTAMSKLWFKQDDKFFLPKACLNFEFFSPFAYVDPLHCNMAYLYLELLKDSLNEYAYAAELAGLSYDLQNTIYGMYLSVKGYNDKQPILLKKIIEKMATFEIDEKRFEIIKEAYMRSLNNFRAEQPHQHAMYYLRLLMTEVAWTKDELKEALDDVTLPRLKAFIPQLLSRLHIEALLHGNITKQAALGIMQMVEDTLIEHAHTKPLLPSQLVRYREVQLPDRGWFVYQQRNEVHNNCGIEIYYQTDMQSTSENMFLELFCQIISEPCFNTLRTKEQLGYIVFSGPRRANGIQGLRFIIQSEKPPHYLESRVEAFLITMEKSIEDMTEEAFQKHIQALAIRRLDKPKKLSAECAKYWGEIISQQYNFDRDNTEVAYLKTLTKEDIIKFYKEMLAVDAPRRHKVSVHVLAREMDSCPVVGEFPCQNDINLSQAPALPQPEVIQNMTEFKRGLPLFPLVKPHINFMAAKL

Insulin-degrading enzyme [9] = biological target: T3, Insulin-degrading enzyme; experiment: activators of recombinant IDE enzyme, dose response, counter-screen for IDE activator project, biochemical, fluorescence polarization (AID 588681)
[10] = C. albicans growth with fluconazole, confirmation, fluorescence, retest (AID 2467); assay type: functional, cell-based
[11] = NIH-3T3 fibroblast cytotoxicity, dose response, cytotoxicity control, cell-based, fluorescence, Alamar Blue, secondary assay (AID 2327); assay type: functional;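 also: NIH-3T3 mouse fibroblasts cultured with fluconazole at 8 µg/mL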
[12] = Luminescence Cell-Based Dose Retest to Confirm Inhibitors of Cancer Stem Cells. [Related pubchem assays (depositor defined):AID2717, AID2721]; assay type: functional; details: Homo sapiens

Chain of Cysteine protease ATG4B (Q9Y4P1 whole entry): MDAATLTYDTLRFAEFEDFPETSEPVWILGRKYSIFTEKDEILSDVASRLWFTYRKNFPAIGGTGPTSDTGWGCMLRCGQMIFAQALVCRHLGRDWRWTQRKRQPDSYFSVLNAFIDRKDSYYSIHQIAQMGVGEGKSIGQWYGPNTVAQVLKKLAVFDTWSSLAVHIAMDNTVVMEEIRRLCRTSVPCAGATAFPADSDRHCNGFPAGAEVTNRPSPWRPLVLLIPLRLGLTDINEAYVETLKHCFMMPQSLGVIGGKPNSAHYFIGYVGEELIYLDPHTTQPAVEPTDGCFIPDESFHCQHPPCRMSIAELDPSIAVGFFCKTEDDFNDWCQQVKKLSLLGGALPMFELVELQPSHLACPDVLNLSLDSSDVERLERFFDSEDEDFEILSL
Chain of Phospholipase A2 (P04054 whole entry): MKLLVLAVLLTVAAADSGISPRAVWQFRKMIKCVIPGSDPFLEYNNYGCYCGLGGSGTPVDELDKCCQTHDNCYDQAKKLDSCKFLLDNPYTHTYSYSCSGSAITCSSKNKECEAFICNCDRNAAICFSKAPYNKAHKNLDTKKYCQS
Chain of 5-hydroxytryptamine receptor 2A (P35363 whole entry): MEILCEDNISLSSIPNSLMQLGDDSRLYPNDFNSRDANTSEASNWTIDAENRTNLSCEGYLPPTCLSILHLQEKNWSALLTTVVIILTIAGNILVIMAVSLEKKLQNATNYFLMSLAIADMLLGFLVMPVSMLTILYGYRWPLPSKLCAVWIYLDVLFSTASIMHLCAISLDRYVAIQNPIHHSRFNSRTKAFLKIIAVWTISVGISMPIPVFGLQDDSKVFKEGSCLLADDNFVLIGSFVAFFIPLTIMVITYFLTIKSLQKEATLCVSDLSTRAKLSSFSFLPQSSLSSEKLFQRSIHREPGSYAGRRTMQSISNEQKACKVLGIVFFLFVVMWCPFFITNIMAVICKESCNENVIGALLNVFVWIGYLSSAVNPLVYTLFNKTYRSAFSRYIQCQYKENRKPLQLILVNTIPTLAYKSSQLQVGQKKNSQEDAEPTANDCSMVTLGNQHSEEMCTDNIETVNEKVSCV
Chain of Mu-type opioid receptor (P35372 whole entry): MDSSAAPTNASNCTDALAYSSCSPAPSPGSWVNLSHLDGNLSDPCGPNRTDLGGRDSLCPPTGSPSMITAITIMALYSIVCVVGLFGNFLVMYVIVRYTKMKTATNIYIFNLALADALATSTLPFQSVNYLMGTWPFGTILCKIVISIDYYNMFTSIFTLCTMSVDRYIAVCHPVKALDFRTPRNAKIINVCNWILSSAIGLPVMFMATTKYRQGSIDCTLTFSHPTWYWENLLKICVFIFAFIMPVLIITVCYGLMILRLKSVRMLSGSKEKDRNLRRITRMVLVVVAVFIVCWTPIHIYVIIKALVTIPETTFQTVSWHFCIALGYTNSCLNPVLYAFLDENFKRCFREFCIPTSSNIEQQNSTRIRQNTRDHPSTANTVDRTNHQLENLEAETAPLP
Chain of Voltage-gated inwardly rectifying potassium channel KCNH2 (Q12809 whole entry): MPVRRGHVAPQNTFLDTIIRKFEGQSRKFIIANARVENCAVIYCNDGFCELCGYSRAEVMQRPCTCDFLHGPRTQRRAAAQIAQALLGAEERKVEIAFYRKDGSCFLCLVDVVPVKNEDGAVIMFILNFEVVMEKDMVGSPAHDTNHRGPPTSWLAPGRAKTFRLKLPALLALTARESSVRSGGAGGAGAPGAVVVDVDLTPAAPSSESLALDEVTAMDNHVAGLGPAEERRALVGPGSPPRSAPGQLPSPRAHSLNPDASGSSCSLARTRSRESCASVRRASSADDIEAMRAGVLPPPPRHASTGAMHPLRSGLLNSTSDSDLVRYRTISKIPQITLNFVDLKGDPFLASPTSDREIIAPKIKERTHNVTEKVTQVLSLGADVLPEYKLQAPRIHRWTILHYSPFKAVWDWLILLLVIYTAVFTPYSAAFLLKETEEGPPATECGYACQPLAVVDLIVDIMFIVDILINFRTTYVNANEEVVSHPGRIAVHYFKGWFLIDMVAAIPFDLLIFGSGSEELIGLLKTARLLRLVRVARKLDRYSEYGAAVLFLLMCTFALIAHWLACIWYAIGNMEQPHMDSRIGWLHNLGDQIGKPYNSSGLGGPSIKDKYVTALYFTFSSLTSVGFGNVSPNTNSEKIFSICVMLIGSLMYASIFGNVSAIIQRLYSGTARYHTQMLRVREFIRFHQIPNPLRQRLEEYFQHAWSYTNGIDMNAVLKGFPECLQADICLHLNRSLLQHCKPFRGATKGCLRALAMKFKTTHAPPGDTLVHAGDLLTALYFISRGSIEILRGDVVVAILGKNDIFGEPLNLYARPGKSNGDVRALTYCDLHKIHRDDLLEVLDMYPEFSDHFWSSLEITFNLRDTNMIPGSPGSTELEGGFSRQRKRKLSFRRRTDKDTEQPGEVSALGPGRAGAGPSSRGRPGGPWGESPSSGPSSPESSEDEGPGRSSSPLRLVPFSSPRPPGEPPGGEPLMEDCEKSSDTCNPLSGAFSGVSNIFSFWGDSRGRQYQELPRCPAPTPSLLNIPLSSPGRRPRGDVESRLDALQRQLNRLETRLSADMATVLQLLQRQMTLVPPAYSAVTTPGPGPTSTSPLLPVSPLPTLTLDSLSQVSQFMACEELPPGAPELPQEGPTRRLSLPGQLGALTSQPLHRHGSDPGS

## CCCN1CC[C@@H]2c3cc(O)ccc3CC[C@@H]21
[1]
  AC50: 35.5 µM (inconclusive)
Mu-type opioid receptor
  EC50: 92.5 µM (inactive)
[2]
  EC50: 76.1 µM (inactive)

## O=C(Nc1nc(-c2ccccc2)ns1)c1ccncc1
[3]
  IC50: > 67.5 µM (inactive)
HEK293 [4]
  IC50: > 67.5 µM (inactive)

## O=C(COC(=O)c1cc(Cl)ccc1[N+](=O)[O-])NCc1ccc(Cl)cc1Cl
Cysteine protease ATG4B
  IC50: 16.3 µM (active)
[5]
  IC50: 6.14 µM (not active)
Phospholipase A2
  IC50: 11.2 µM (active)

## CC(=O)Nc1ccc(N2S(=O)(=O)c3ccccc3S2(=O)=O)cc1
HEK293 [6]
  IC50: > 89.2 µM (inactive)
HEK293 [7]
  EC50: > 54.7 µM (inactive)
Insulin-degrading enzyme [8]
  EC50: > 54.7 µM (inactive)
Insulin-degrading enzyme [9]
  EC50: > 54.7 µM (inactive)

## CC(C)(C)n1ncc2c(=O)n(Cc3ccccc3Br)cnc21
Cysteine protease ATG4B
  IC50: 10.8 µM (active)
Phospholipase A2
  IC50: 7.12 µM (active)

## Cc1cc(C(=O)NNc2ccc(F)cc2F)no1
[3]
  IC50: > 67.5 µM (inactive)
[10]
  EC50: > 38 µM (not active)
HEK293 [4]
  IC50: > 67.5 µM (inactive)
[11]
  EC50: 2.93 µM (active)
[12]
  AC50: 1.1 µM (active)
